Measurements: publication PMC3492761 (Journal of medicinal chemistry, 2012)

Assays:
[1] = test system: A/Brisbane/10/2007 (H3N2); settings: read-out: EC50, cytopathic effect inhibition
[2] = male (rat, dog), human, microsomes, 1 h
[3] = test system: A/WSN/33 (H1N1) influenza virus; settings: mouse, in vivo, po

Q: Which EC50 [1] does the source give for `CCOP(=O)(O)C1=C[C@@H](OC(CC)CC)[C@H](NC(C)=O)[C@@H](N)C1` [3c, tamiphosphor monoethyl ester] here?
A: > 10 µM

Q: For `Cc1ncc2n1-c1ccc(Cl)cc1C(c1ccccc1F)=NC2` [midazolam], which metabolized [2] is on record?
A: 65–100%

Q: With `CCC(CC)O[C@@H]1C=C(P(=O)(O)O)C[C@H](NC(=N)N)[C@H]1NC(C)=O` [4a, guanidino-tamiphosphor] as the molecule, how does the EC50 [1] read?
A: > 10 µM

Q: With `C[C@]12CC[C@H]3[C@@H](CCC4=CC(=O)CC[C@@]43C)[C@@H]1CC[C@@H]2O` [testosterone] as the molecule, how does the metabolized [2] read?
A: 65–100%

Q: Which “protection of infected mice” value [3] does the source give for `CCOP(=O)(OCC)C1=C[C@@H](OC(CC)CC)[C@H](NC(C)=O)[C@@H](N)C1` [3b, tamiphosphor diethyl ester] here?
A: No significant protection

Q: For `CCC(CC)O[C@@H]1C=C(P(=O)(O)O)C[C@H](N)[C@H]1NC(C)=O` [3a, tamiphosphor], which EC50 [1] is on record?
A: > 10 µM

Q: For `CCOP(=O)(O)C1=C[C@@H](OC(CC)CC)[C@H](NC(C)=O)[C@@H](NC(=N)N)C1` [4c, guanidino-tamiphosphor monoethyl ester], which EC50 [1] is on record?
A: > 10 µM
